Laboratory results reported in patent US9107446B2, “Solubilizates of preservatives and method for producing the same” (AQUANOVA AG, priority 2006, dated 2015).
Where two headings read alike, the source gives them in different places.

Experiments:
[1] = system: Saccharomyces cerevisae; conditions: pH 6.2, room temperature; for Bacteria Count: 0.4 ml yeast solution
[2] = cited from earlier work
[3] = system: bacteria; conditions: 500 mg added to nutrient solution with agar; about three weeks contact time
[4] = in water; cited from earlier work

In the case of `O=C(O)c1ccccc1` [Benzoic Acid], the “Bacteria Count” value ([1]; Benzoic Acid Concentration 10 ppm, After 3 days) is reported as 1,650,000/ml, the “Bacteria Count” value ([1]; Benzoic Acid Concentration 10 ppm, After 7 days) is reported as 1,200,000/ml and the “Bacteria Count” value ([1]; Benzoic Acid Concentration 10 ppm, After 15 days) is reported as 800,000/ml. For the same molecule, the “Bacteria Count” value ([1]; Benzoic Acid Concentration 10 ppm, After 22 days) was 1,100,000/ml, the “Bacteria Count” value ([1]; Benzoic Acid Concentration 10 ppm, After 29 days) was 1,300,000/ml and the “Bacteria Count” value ([1]; Benzoic Acid Concentration 10 ppm, Initial) was 2,900/ml. For the same molecule, the “Bacteria Count” value ([1]; Benzoic Acid Concentration 50 ppm, After 3 days) was 1,900,000/ml, the “Bacteria Count” value ([1]; Benzoic Acid Concentration 50 ppm, After 7 days) was 1,100,000/ml and the “Bacteria Count” value ([1]; Benzoic Acid Concentration 50 ppm, After 15 days) was 900,000/ml. For the same molecule, the “Bacteria Count” value ([1]; Benzoic Acid Concentration 50 ppm, After 22 days) was 930,000/ml, the “Bacteria Count” value ([1]; Benzoic Acid Concentration 50 ppm, After 29 days) was 1,300,000/ml and the “Bacteria Count” value ([1]; Benzoic Acid Concentration 50 ppm, Initial) was 2,900/ml. For the same molecule, the “Bacteria Count” value ([1]; Benzoic Acid Concentration 100 ppm, After 3 days) was 670,000/ml, the “Bacteria Count” value ([1]; Benzoic Acid Concentration 100 ppm, After 7 days) was 530,000/ml and the “Bacteria Count” value ([1]; Benzoic Acid Concentration 100 ppm, After 15 days) was 600,000/ml. The “Bacteria Count” value ([1]; Benzoic Acid Concentration 100 ppm, After 22 days) was 1,200,000/ml, the “Bacteria Count” value ([1]; Benzoic Acid Concentration 100 ppm, After 29 days) was 900,000/ml and the “Bacteria Count” value ([1]; Benzoic Acid Concentration 100 ppm, Initial) was 2,900/ml. The “Bacteria Count” value ([1]; Benzoic Acid Concentration 200 ppm, After 3 days) was 510,000/ml, the “Bacteria Count” value ([1]; Benzoic Acid Concentration 200 ppm, After 7 days) was 430,000/ml and the “Bacteria Count” value ([1]; Benzoic Acid Concentration 200 ppm, After 15 days) was 350,000/ml. The “Bacteria Count” value ([1]; Benzoic Acid Concentration 200 ppm, After 22 days) was 400,000/ml, the “Bacteria Count” value ([1]; Benzoic Acid Concentration 200 ppm, After 29 days) was 400,000/ml and the “Bacteria Count” value ([1]; Benzoic Acid Concentration 200 ppm, Initial) was 2,900/ml. The “Bacteria Count” value ([1]; Benzoic Acid Concentration 300 ppm, After 3 days) was 630,000/ml, the “Bacteria Count” value ([1]; Benzoic Acid Concentration 300 ppm, After 7 days) was 400,000/ml and the “Bacteria Count” value ([1]; Benzoic Acid Concentration 300 ppm, After 15 days) was 520,000/ml. The “Bacteria Count” value ([1]; Benzoic Acid Concentration 300 ppm, After 22 days) was 250,000/ml, the “Bacteria Count” value ([1]; Benzoic Acid Concentration 300 ppm, After 29 days) was 230,000/ml and the “Bacteria Count” value ([1]; Benzoic Acid Concentration 300 ppm, Initial) was 2,900/ml. The “Bacteria Count” value ([1]; Benzoic Acid Concentration 500 ppm, After 3 days) was 700 mL⁻¹, the “Bacteria Count” value ([1]; Benzoic Acid Concentration 500 ppm, After 7 days) was 55,000/ml and the “Bacteria Count” value ([1]; Benzoic Acid Concentration 500 ppm, After 15 days) was 230,000/ml. The “Bacteria Count” value ([1]; Benzoic Acid Concentration 500 ppm, After 22 days) was 120,000/ml, the “Bacteria Count” value ([1]; Benzoic Acid Concentration 500 ppm, After 29 days) was 43,000/ml and the “Bacteria Count” value ([1]; Benzoic Acid Concentration 500 ppm, Initial) was 2,900/ml. For the same molecule, the “yeast growth (in words)” value ([1]; benzoic acid concentration of 500 ppm, after 29 days of contact time) was “high yeast growth”, the “Anion, dis.” value ([2]; pH Value 3) was 6% and the “Anion, dis.” value ([2]; pH Value 3.5) was 16.7%. The “Anion, dis.” value ([2]; pH Value 4.0) was 38.7% and the “Anion, dis.” value ([2]; pH Value 5.0) was 86.5%.
For `C/C=C/C=C/C(=O)[O-].[K+]` [Potassium Sorbate], the Bacteria Count [3] is listed as 1.6×10^10 and the “Solubility, Water” value [4] is listed as 138 g/100 g.
For `C/C=C/C=C/C(=O)O` [Sorbic Acid], the “Anion, dis.” value ([2]; pH Value 3) is listed as 1.7%, the “Anion, dis.” value ([2]; pH Value 4.0) is listed as 14.7% and the “Anion, dis.” value ([2]; pH Value 5.0) is listed as 63%.
